From patent publication US12226410B2, “Methods for enhancing cellular clearance of pathological molecules via activation of the cellular protein ykt6” (NORTHWESTERN UNIVERSITY, priority 2019, dated 2025)

Assays:
ykt6 = assay: Measurement of farnesyl-ykt6 in SH-SY5Y cells; type: cell-based, human; details: SH-SY5Y cells expressing GFP-ykt6; 10 nM FTI, 48 hours
Experimental: FIGS. 14A, 14B, 14C, 14D, 14E, 14F, and 14G. The effects of FTI treatment on ykt6 and lysosomes. 14A) Farnesylation of ykt6 was measured in SH-SY5Y cells expressing GFP-ykt6. Cells treated with or without FTI (LNK-754) were cultured with farnesyl-azide to label farnesyl-modified proteins, immunoprecipitated with GFPaffinity beads, and then conjugated with phosphine-biotin. Biotin was detected with streptavidin-conjugated IRDye800, and normalized to total levels of GFP-ykt6. See methods for details. […] 14B) Membrane shift analysis of SH-SY5Y cells stably expressing GFP-ykt6-CS, treated with 5 nM FTI. Calnexin (CNX) and Coomassie blue (CBB) were used as a loading controls. 14C) Gel filtration/western blot analysis of FTI treated A53T iPSn. Ykt6 complex levels eluting at ca. 120A were quantified on the right (n=2). […] 14E) Raw quantification data of LAMP2A immunofluorescence intensity of individual cells from H4 cells treated with FTI, +/−ykt6 KD. Each data point represents LAMP2A intensity from individual cells, from 3 different culture wells. 14F) Analysis of ER-Golgi trafficking of GCase by endo H resistance after treatment with FTI in SH-SY5Y cells overexpressing wt a-syn (n=3). 14G) Western blot analysis of Triton X-100 soluble a-syn in SH-SY5Y wt a-syn cells after treatment with various concentrations of FTI for 5 days. For all quantifications, values are the mean+/−SEM, *p<0.05. […]

H4 a-syn cells = assay: Immunofluorescence of GCase and LAMP2A in FTI-treated H4 a-syn cells; type: cell-based, human; details: 5 nM FTI
Experimental: FIGS. 5A, 5B, 5C, 5D, 5E, 5F, and 5G. Reducing farnesyl-ykt6 enhances SNARE assembly and improves the lysosomal targeting of GCase. 5A) Ykt6 membrane shift analysis of SH-SY5Y cells expressing GFP-ykt6 wt or CS (n=3). 5B) Co-IP of GFP-ykt6 and bet1 in A53T iPSn (n=3). 5C) Ykt6 membrane shift analysis in FTI-treated SH-SY5Y wt a-syn cells or A53T iPSn (5 nM farnesyltransferase inhibitors (FTI) LNK-754 (FTI-1) or LNK-3248 (FTI-2) for 5 days) (n=4). Sec22b was measured to assess specificity. 5D) SEC/western blot of FTI-1 treated SH-SY5Y cells. Quantification is shown below. […]
FIGS. 14A, 14B, 14C, 14D, 14E, 14F, and 14G. […] 14A) Farnesylation of ykt6 was measured in SH-SY5Y cells expressing GFP-ykt6. […] Biotin was detected with streptavidin-conjugated IRDye800, and normalized to total levels of GFP-ykt6. […] Ykt6 complex levels eluting at ca. 120A were quantified on the right (n=2). […] 14E) Raw quantification data of LAMP2A immunofluorescence intensity of individual cells from H4 cells treated with FTI, +/−ykt6 KD. […] For all quantifications, values are the mean+/−SEM, *p<0.05.
For GCase/LAMP2 colocalization, cultures were fixed in 4% PFA in PBS for 20 minutes, then permeabilized in 0.2% saponin in 0.2% glycine buffer as described previously (Mazzulli et al., 2016b). […] Cells were mounted in DAPI-Fluoromount G (Southern Biotech) and analyzed by confocal microscopy as above. […]

Question: With `C#Cc1cccc(-c2cc(=O)n(C)c3ccc([C@](O)(c4ccc(Cl)cc4)c4cncn4C)cc23)c1` [LNK-754] as the compound, how does the “reduction of the farnesyl-ykt6 signal” value (ykt6) read?
Answer: The value was 40%.

Question: And the “levels of LAMP2A and GCase by immunostaining” value (H4 a-syn cells)?
Answer: The value was “elevated the levels of LAMP2A and GCase”.
